Laboratory results reported in patent publication US5364870A (priority 1993, dated 1994).

Experiments:
Test in all cases: whole plant or invertebrate
Assay type in all cases: in vivo
[1] = test system: wheat powdery mildew (Erysiphe graminis f. sp. tritici); settings: Blumeria graminis, read-out: % Control WPM (percent disease control)
[2] = test system: wheat stem rust (Puccinia graminis f. sp. tritici Race 15B-2); settings: 336 h, read-out: % Control WSR (percent disease control)
[3] = test system: rice blast (Piricularia oryzae); settings: Pyricularia oryzae, 192 h, read-out: % Control RB (percent disease control)
[4] = test system: rice sheath blight (Pellicularia filamentosa f. sp. sasiki); settings: Oryza sativa, 120 h, read-out: % Control RSB (percent disease control)
[5] = test system: cucumber downy mildew (Pseudoperonospora cubensis); settings: 168 h, read-out: % Control CDM (percent disease control)

## CCCCC(CNC=O)(Cn1cncn1)c1ccc(Cl)cc1 (stereo not shown) [Example 1, N-(2-(4-Chlorophenyl)-2-[(1,2,4-triazol-1-yl)methyl]hexyl)formamide]
[1]
  pest or weed control at 200 ppm: 80%
[2]
  pest or weed control at 200 ppm: 0%
[3]
  pest or weed control at 200 ppm: 0%
[4]
  pest or weed control at 200 ppm: 0%
[5]
  pest or weed control at 200 ppm: 0%

## [C-]#[N+]CC(CCCC)(Cn1cncn1)c1ccc(Cl)cc1 (stereo not shown) [Example 2, 2-(4-Chlorophenyl)-2-[(1,2,4-triazol-1-yl)methyl]hexylisocyanide]
[1]
  pest or weed control at 200 ppm: 80%
[2]
  pest or weed control at 200 ppm: 100%
[3]
  pest or weed control at 200 ppm: 0%
[4]
  pest or weed control at 200 ppm: 0%
[5]
  pest or weed control at 200 ppm: 0%

## CCCCC(C=O)(Cn1cncn1)c1ccc(Cl)cc1 (stereo not shown) [Example 3, 2-(4-Chlorophenyl)-2-[(1,2,4-triazol-1-yl)methyl]hexanal]
[1]
  pest or weed control at 200 ppm: 100%
[2]
  pest or weed control at 200 ppm: 100%
[3]
  pest or weed control at 200 ppm: 70%
[4]
  pest or weed control at 200 ppm: 50%
[5]
  pest or weed control at 200 ppm: 0%

## C=CC(CCCC)(Cn1cncn1)c1ccc(Cl)cc1 (stereo not shown) [Example 4, 3-(4-Chlorophenyl)-3-[(1,2,4-triazol-1-yl)methyl]-1-heptene]
[1]
  pest or weed control at 200 ppm: 100%
[2]
  pest or weed control at 200 ppm: 100%
[3]
  pest or weed control at 200 ppm: 80%
[4]
  pest or weed control at 200 ppm: 60%
[5]
  pest or weed control at 200 ppm: 80%

## CCCCC(Cn1cncn1)(C(=O)N=[N+]=[N-])c1ccc(Cl)cc1 (stereo not shown) [Example 5, 2-(4-Chlorophenyl)-2-[(1,2,4-triazol-1-yl)methyl]hexanoylazide]
[1]
  pest or weed control at 200 ppm: 100%
[2]
  pest or weed control at 200 ppm: 70%
[4]
  pest or weed control at 200 ppm: 0%
[5]
  pest or weed control at 200 ppm: 20%

## CCCCC(C=NO)(Cn1cncn1)c1ccc(Cl)cc1 (stereo not shown) [Example 6, 2-(4-Chlorophenyl)-(E,Z)-1-hydroxyamino-2-[(1,2,4-triazol-1-yl)methyl]hexanal]
[1]
  pest or weed control at 200 ppm: 100%
[2]
  pest or weed control at 200 ppm: 100%
[3]
  pest or weed control at 200 ppm: 0%
[4]
  pest or weed control at 200 ppm: 0%
[5]
  pest or weed control at 200 ppm: 0%

## CCCCC(Cn1cncn1)(NC=O)c1ccc(Cl)cc1 (stereo not shown) [Example 8, N-[2-(4-Chlorophenyl)-1-(1,2,4-triazol-1-yl)-2-hexyl]formamide]
[1]
  pest or weed control at 200 ppm: 100%
[2]
  pest or weed control at 200 ppm: 60%
[3]
  pest or weed control at 200 ppm: 0%
[5]
  pest or weed control at 200 ppm: 0%

## [C-]#[N+]C(CCCC)(Cn1cncn1)c1ccc(Cl)cc1 (stereo not shown) [Example 9, 2-(4-Chlorophenyl)-1-(1,2,4-triazol-1-yl)-2-hexylisocyanide]
[1]
  pest or weed control at 200 ppm: 100%
[2]
  pest or weed control at 200 ppm: 90%
[3]
  pest or weed control at 200 ppm: 80%
[4]
  pest or weed control at 200 ppm: 0%
[5]
  pest or weed control at 200 ppm: 0%

## CCCCC(Cn1cncn1)(NC(C)=O)c1ccc(Cl)cc1 (stereo not shown) [Example 10, N-[2-(4-Chlorophenyl)-1-(1,2,4-triazol-1-yl)-2-hexyl]acetamide]
[1]
  pest or weed control at 200 ppm: 30%
[2]
  pest or weed control at 200 ppm: 0%
[3]
  pest or weed control at 200 ppm: 0%
[4]
  pest or weed control at 200 ppm: 70%
[5]
  pest or weed control at 200 ppm: 0%
